Among the data in patent publication US20090257979A1, “Novel Inhibitors of Hepatitis C Virus Replication” (INTERMUNE, INC., priority 2008, published 2009) are EC50 values, retold here.

Assay [1] addresses T1, NS5B polymerase protein (Hepatitis C virus genotype 1a, UniProt P27958).
T1 construct: pre-incubated with the RNA template and NS5B polymerase protein; Replizyme
Put plainly: biochemical. The conditions noted are these: pre-incubated 37° C. 30 minutes; RdRp reaction 90 minutes at 37° C.; read-out: HCV NS5B inhibition EC50. Here is the method: The compounds were tested in the Replizyme HCV heterotemplate radioactive RNA-dependent RNA-polymerase (RdRp) assay. The test compounds were pre-incubated with the RNA template and NS5B polymerase protein at 37° C. for 30 minutes. The RdRp reaction was initiated with the addition of the NTPs to the buffer-NS5B-compound mix, and was allowed to proceed for 90 minutes at 37° C. Control reactions included: no enzyme, 5% DMSO (test compound solvent), no compound/solvent, Cordycepin-TP and HCV-796 (IC50 values used as a reference inhibition). Radioactive products were collected by applying the stopped reaction to DE-81 paper, air dried prior to washing with buffer comprising NaH2PO4 and sodium pyrophosphate to remove unincorporated ^32P-GTP in the NTP mix, and rinsed with dH2O followed by 100% ethanol. The DE-81 paper was air dried, squares cut out and placed in scintillation tubes for counting.

Assay [2] has as its system HCV Replicon. Put plainly: HCV Replicon inhibition. The conditions noted are these: Hepatitis C virus. Format: cell-based. (Replicon systems follow genome replication, usually without infectious particles.)

The structures appear in SMILES notation.

T1 sequence (P27958 2421-3011): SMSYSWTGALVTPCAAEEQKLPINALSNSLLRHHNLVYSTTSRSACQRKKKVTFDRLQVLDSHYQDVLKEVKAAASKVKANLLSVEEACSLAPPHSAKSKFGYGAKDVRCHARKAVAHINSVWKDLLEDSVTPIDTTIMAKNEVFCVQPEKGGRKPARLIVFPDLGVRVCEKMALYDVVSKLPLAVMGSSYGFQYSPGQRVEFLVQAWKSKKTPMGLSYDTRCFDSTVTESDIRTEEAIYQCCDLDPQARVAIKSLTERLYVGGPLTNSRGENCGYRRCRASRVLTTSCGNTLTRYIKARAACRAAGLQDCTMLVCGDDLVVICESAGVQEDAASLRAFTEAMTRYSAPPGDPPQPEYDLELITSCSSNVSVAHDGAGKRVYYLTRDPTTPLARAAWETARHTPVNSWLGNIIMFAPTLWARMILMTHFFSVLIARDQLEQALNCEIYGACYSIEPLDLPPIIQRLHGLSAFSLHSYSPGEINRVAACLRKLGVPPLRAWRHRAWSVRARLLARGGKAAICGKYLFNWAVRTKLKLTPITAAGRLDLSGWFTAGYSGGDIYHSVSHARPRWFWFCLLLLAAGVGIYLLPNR

With `CC(C)CCc1c(O)c(C2=Nc3ccccc3S(=O)(=O)N2)c(O)c2ccccc12` [Compound 104, 1,3-dihydroxy-2-(1,1-dioxo-2H-(1,2,4)-benzothiadiazin-3-yl)-4-(3-methylbutyl)naphthalene], the concentration giving a half-maximal response (EC50) in assay [1] was 100 to 1000 nM; in assay [2], 1 to 10 µM.
For `O=S1(=O)NC(c2c(O)c(Br)c3ccccc3c2O)=Nc2ccccc21` [Compound 105, 4-bromo-1,3-dihydroxy-2-(1,1-dioxo-2H-(1,2,4)-benzothiadiazin-3-yl)naphthalene], the EC50 in assay [1] was in the range of 1000 to 10000 nM; in assay [2], 1 to 10 µM.
For `CC(C)CCn1cc(C2=NS(=O)(=O)c3ccccc3N2)c2ccccc21` [Compound 201], in that order: 10000 to 50000 nM and 10 to 50 µM.
Consider `CC(C)CCn1nc(C2=NS(=O)(=O)c3ccccc3N2)c2ccccc21` [Compound 202], for which the figures for the concentration for a half-maximal effect (EC50) in assay [1] and in assay [2] were 10000 to 50000 nM and 10 to 50 µM, respectively.
As for `CC(C)CCn1cc(C2=NS(=O)(=O)c3cc(NS(C)(=O)=O)ccc3N2)c2ccccc21` [Compound 203], the EC50 in assay [1] was 100 to 1000 nM; in assay [2] it was over 50 µM.
As for `CC(C)CCn1nc(C2=NS(=O)(=O)c3cc(NS(C)(=O)=O)ccc3N2)c2ccccc21` [Compound 204], the EC50 in assay [1] fell in the range of 100 to 1000 nM; in assay [2] it was 10 to 50 µM.
The corresponding values for `COc1cccc2c1c(C1=NS(=O)(=O)c3cc(NS(C)(=O)=O)ccc3N1)cn2CCC(C)C` [Compound 205] are 10000 to 50000 nM and 10 to 50 µM.
For `COc1ccc2c(C3=NS(=O)(=O)c4cc(NS(C)(=O)=O)ccc4N3)cn(CCC(C)C)c2c1` [Compound 206], in that order: 1000 to 10000 nM and over 50 µM.
`CC(C)CCn1cc(C2=NS(=O)(=O)c3cc(NS(C)(=O)=O)ccc3N2)c2cc(Cl)ccc21` [Compound 207]: the EC50 is 1000 to 10000 nM in assay [1] and over 50 µM in assay [2].
For the compound `CC(C)CCn1cc(C2=NS(=O)(=O)c3cc(NS(C)(=O)=O)ccc3N2)c2cccc(Cl)c21` [Compound 208], the results for the EC50 in assay [1] and in assay [2] were 100 to 1000 nM and over 50 µM, respectively.
Consider `CC(C)CCn1cc(C2=NS(=O)(=O)c3cc(NS(C)(=O)=O)ccc3N2)c2c(O)cccc21` [Compound 209], for which the results for the concentration giving a half-maximal response (EC50) in assay [1] and in assay [2] were 100 to 1000 nM and over 50 µM, respectively.
The corresponding values for `CC(C)CCn1cc(C2=NS(=O)(=O)c3cc(NS(C)(=O)=O)ccc3N2)c2ccc(O)cc21` [Compound 210] are 100 to 1000 nM and 10 to 50 µM.
Consider `CC(C)CCn1cc(C2=NS(=O)(=O)c3cc(NS(C)(=O)=O)ccc3N2)c2ccc(C(C)C)cc21` [Compound 211], for which the EC50 in assay [1] was 1000 to 10000 nM; in assay [2] it was 10 to 50 µM.
For the compound `CC(C)CCn1cc(C2=NS(=O)(=O)c3cc(NS(C)(=O)=O)ccc3N2)c2cc(Br)ccc21` [Compound 212], the EC50 was 1000 to 10000 nM in assay [1] and over 50 µM in assay [2].
As to `CC(C)CCC1(C)C(=O)C(C2=Nc3ccccc3S(=O)(=O)N2)=C(O)c2cccn21` (stereo not shown) [Compound 213], the EC50 in assay [1] was under 100 nM; in assay [2], 10 to 50 µM.
Consider `CC(C)CCC1(C)C(=O)C(C2=NS(=O)(=O)c3cc(NS(C)(=O)=O)ccc3N2)=C(O)c2cccn21` (stereo not shown) [Compound 214], for which the EC50 in assay [1] is under 100 nM; in assay [2], 0.1 to 1 µM.
As to `CC(C)CCC1(C)C(=O)C(C2=NS(=O)(=O)c3cc(NS(C)(=O)=O)ccc3N2)=C(O)c2nccn21` (stereo not shown) [Compound 215], in assay [1], the EC50 fell in the range of 1000 to 10000 nM.
For the compound `CC(C)CCc1c2n(c(O)c(C3=NS(=O)(=O)c4cc(NS(C)(=O)=O)ccc4N3)c1=O)CCCC2` [Compound 220], the EC50 in assay [1] is under 100 nM; in assay [2], 0.1 to 1 µM.
`CC(C)CCn1c(=O)c(C2=NS(=O)(=O)c3ccccc3N2)c(O)n2ccnc12` [Compound 221, 6-(1,1-Dioxo-1,4-dihydro-1lambda*6*-benzo[1,2,4]thiadiazin-3-yl)-5-hydroxy-8-(3-methyl-butyl)-8H-imidazo[1,2-a]pyrimidin-7-one]: the EC50 in assay [1] is 100 to 1000 nM; in assay [2] it was over 50 µM.
For `CC(C)CCn1c(=O)c(C2=NS(=O)(=O)c3cc(NS(C)(=O)=O)ccc3N2)c(O)n2ccnc12` [Compound 222, N-{3-[5-Hydroxy-8-(3-methyl-butyl)-7-oxo-7,8-dihydro-imidazo[1,2-a]pyrimidin-6-yl]-1,1-dioxo-1,4-dihydro-1lambda*6*-benzo[1,2,4]thiadiazin-7-yl}-methanesulfonamide], in that order: under 100 nM and 0.1 to 1 µM.
For `CC(C)CCC1(C)C(=O)C(C2=NS(=O)(=O)c3cc(NS(C)(=O)=O)ccc3N2)=C(O)c2ccnn21` (stereo not shown) [Compound 223], in that order: under 100 nM and 1 to 10 µM.
Turning to `CS(=O)(=O)Nc1ccc2c(c1)S(=O)(=O)N=C(c1cccc(C(F)(F)F)c1)N2` [Compound 224], the EC50 was 10000 to 50000 nM in assay [1] and under 0.1 µM in assay [2].
The corresponding values for `CC(C)CCc1c(=O)c(C2=NS(=O)(=O)c3cc(NS(C)(=O)=O)ccc3N2)c(O)n2ccccc12` [Compound 225] are under 100 nM and under 0.1 µM.
The corresponding values for `CC(C)CCc1c(=O)c(C2=NS(=O)(=O)c3cc(NS(=O)(=O)C4CC4)ccc3N2)c(O)n2ccccc12` [Compound 226] are under 100 nM and under 0.1 µM.
For `CC(C)(C)CCc1c(=O)c(C2=NS(=O)(=O)c3cc(NS(C)(=O)=O)ccc3N2)c(O)n2ccccc12` [Compound 227], in that order: under 100 nM and under 0.1 µM.
Consider `CS(=O)(=O)Nc1ccc2c(c1)S(=O)(=O)N=C(c1c(O)n3ccccc3c(Cc3ccc(F)cc3)c1=O)N2` [Compound 228], for which the values for the EC50 in assay [1] and in assay [2] were under 100 nM and under 0.1 µM, respectively.
The corresponding values for `CC(C)CCn1c(=O)c(C2=NS(=O)(=O)c3cc(NS(C)(=O)=O)ccc3N2)c(O)n2nccc12` [Compound 229, N-{3-[7-Hydroxy-4-(3-methyl-butyl)-5-oxo-4,5-dihydro-pyrazolo[1,5-a]pyrimidin-6-yl]-1,1-dioxo-1,4-dihydro-1lambda*6*-benzo[1,2,4]thiadiazin-7-yl}-methanesulfonamide] are 100 to 1000 nM and under 0.1 µM.
As to `CS(=O)(=O)Nc1ccc2c(c1)S(=O)(=O)N=C(c1c(O)n3nccc3n(Cc3ccccc3)c1=O)N2` [Compound 230, N-[3-(4-Benzyl-7-hydroxy-5-oxo-4,5-dihydro-pyrazolo[1,5-a]pyrimidin-6-yl)-1,1-dioxo-1,4-dihydro-1lambda*6*-benzo[1,2,4]thiadiazin-7-yl]-methanesulfonamide], the EC50 in assay [1] is 1000 to 10000 nM; in assay [2], under 0.1 µM.
The corresponding values for `CS(=O)(=O)Nc1ccc2c(c1)S(=O)(=O)N=C(c1c(O)n3nccc3n(Cc3ccc(F)cc3)c1=O)N2` [Compound 231, N-{3-[4-(4-Fluoro-benzyl)-7-hydroxy-5-oxo-4,5-dihydro-pyrazolo[1,5-a]pyrimidin-6-yl]-1,1-dioxo-1,4-dihydro-1lambda*6*-benzo[1,2,4]thiadiazin-7-yl}-methanesulfonamide] are 10000 to 50000 nM and under 0.1 µM.
For `CS(=O)(=O)Nc1ccc2c(c1)S(=O)(=O)N=C(c1c(O)n3nccc3n(CCc3ccc(F)cc3)c1=O)N2` [Compound 232, N-(3-{4-[2-(4-Fluoro-phenyl)-ethyl]-7-hydroxy-5-oxo-4,5-dihydro-pyrazolo[1,5-a]pyrimidin-6-yl}-1,1-dioxo-1,4-dihydro-1lambda*6*-benzo[1,2,4]thiadiazin-7-yl)-methanesulfonamide], in that order: over 50000 nM and under 0.1 µM.
For the compound `Cc1cc2n(CCC(C)C)c(=O)c(C3=NS(=O)(=O)c4cc(NS(C)(=O)=O)ccc4N3)c(O)n2n1` [Compound 233, N-{3-[7-Hydroxy-2-methyl-4-(3-methyl-butyl)-5-oxo-4,5-dihydro-pyrazolo[1,5-a]pyrimidin-6-yl]-1,1-dioxo-1,4-dihydro-1lambda*6*-benzo[1,2,4]thiadiazin-7-yl}-methanesulfonamide], the concentration giving a half-maximal response (EC50) in assay [1] is 1000 to 10000 nM; in assay [2], under 0.1 µM.
As to `CC(C)CCn1c(=O)c(C2=NS(=O)(=O)c3cc(NS(C)(=O)=O)ccc3N2)c(O)n2nc(C3CC3)cc12` [Compound 234, N-{3-[2-cyclopropyl-7-Hydroxy-4-(3-methyl-butyl)-5-oxo-4,5-dihydro-pyrazolo[1,5-a]pyrimidin-6-yl]-1,1-dioxo-1,4-dihydro-1lambda*6*-benzo[1,2,4]thiadiazin-7-yl}-methanesulfonamide], the EC50 in assay [1] is 10000 to 50000 nM; in assay [2], under 0.1 µM.
The corresponding values for `CC(C)CCn1c(=O)c(C2=NS(=O)(=O)c3cc(NS(C)(=O)=O)ccc3N2)c(O)n2ncnc12` [Compound 235, N-{3-[7-Hydroxy-4-(3-methyl-butyl)-5-oxo-4,5-dihydro-[1,2,4]triazolo[1,5-a]pyrimidin-6-yl]-1,1-dioxo-1,4-dihydro-1lambda*6*-benzo[1,2,4]thiadiazin-7-yl}-methanesulfonamide] are 1000 to 10000 nM and under 0.1 µM.
For `Cc1cc2c(o1)c(C1=NS(=O)(=O)c3cc(NS(C)(=O)=O)ccc3N1)c(=O)n1ccccc21` [Compound 242], the EC50 in assay [1] was in the range of 10000 to 50000 nM.
Still for that read-out and setting: next, `CS(=O)(=O)Nc1ccc2c(c1)S(=O)(=O)N=C(c1c(O)n3ccccc3c(Cc3cccs3)c1=O)N2` [Compound 244]: under 100 nM.

For orientation: EC50 means the midpoint of the concentration-response curve.
